Results reported in patent US20040029927A1, “Use of a compound in providing refreshedness on waking and a method for the treatment of grogginess therewith” (The Boots Company PLC, priority 2001, published 2004).
Counter-ions that a name gives are not always drawn.

Columns and labels:
[1] = tested on: patients with temporary sleep disturbance; experiment: Clinical trial, Karolinska 9-point sleepiness scale; format: in vivo, human
Method: (§1) The efficacy of triprolidine in enabling a patient to feel refreshed or alert upon waking after taking triprolidine prior to sleeptime was investigated using patients with a history of sleep disorders and utilising triprolidine prepared in accordance with example 3.
(a) Karolinska scale as defined in: Int. J. Neuroscience 52 29-37 (1990); and
(§2) A multiple-dose, placebo-controlled, parallel-group, double-blind, randomised study investigating the effects of 2.5 mg and 5 mg triprolidine in patients with temporary sleep disturbance.
(§3) Male and Female candidates aged 18 years and above were recruited to one of five research centres by means of local advertising. Candidates were screened by means of a telephone questionnaire and selected candidates invited for interview at the research centre. Key inclusion criteria used to select candidates for the study were:
(§4) The candidates came to the research centre on Thursday or Friday and were fitted with a wrist actimeter (AW4 from Cambridge Technology) to establish a baseline measure for SDI and were provided with diary cards to record subjective assessments for the Loughborough Sleep Log and the Karolinska Sleepiness Scale. They returned to the investigational site on the Monday and were issued with the study compositions (2.5 mg triprolidine, 5 mg triprolidine or placebo). The investigator telephoned a central randomisation centre where the subject was randomised to a particular treatment group using a dynamic balanced randomisation algorithm. The subject was given three doses of their allocated study medication and instructed to take a single dose of two tablets 20 minutes before they intended to go to sleep on three consecutive evenings, commencing that evening. The diary cards for the Loughborough Sleep Log and Karolinska Sleepiness Scale were asked to be completed on waking.
A daytime sleepiness assessment was also made 20 minutes, 2 hours and 4 hours after awaking on the Karolinska 9-point scale, i.e. the sleepiness scale.
Karolinska's sleepiness scale is set out below and the results for placebo, 2.5 and 5.0 mg doses of triprolidine are shown in tables 4 and 5. Table 4 relates to the number of individuals experiencing scales 1, 2 or 3 on the Karolinska scale and table 5 relates to the number of individuals experiencing scales 8 and 9.
Karolinska Sleepiness Scale
This will be completed 20 minutes after awakening and then at 2 hours and 4 hours following the first assessment on days 5, 6, 7 and 8.

[2] = tested on: patients with temporary sleep disturbance; experiment: Clinical trial, Loughborough sleep log: last night I slept (quality of sleep, 5-point scale); format: in vivo, human
Method: as §1, §2, §3, §4
(§5) In the trial, patients were tested during a seven day period and the results have been analysed for a mean of three days in the middle of this period. The effects of triprolidine at dose level 2.5 mg and 5.0 mg are compared with placebo in table 1.
(§6) The following is a copy of the “Loughborough sleep log questionnaire” which was used by patients in the study and provided the data for datasets a and b in table 1

[3] = tested on: patients with temporary sleep disturbance; experiment: Clinical trial, Loughborough sleep log: feeling of refreshedness 15 minutes after waking (5-point scale); format: in vivo, human
Method: as §1, §2, §3, §4
Candidates were required to complete a questionnaire 15 minutes after awaking on the feeling of refreshedness assessed on a 5-point scale, the Loughborough sleep log.
as §5
Generally the treatment groups were well balanced in terms of the demographic data. Unless otherwise mentioned all group data was analysed using ANOVA. In two cases, namely, how the patient felt 15 minutes after awakening in the Loughborough Sleep Log and the Karolinska Sleepiness Scale at 20 minutes, the two variables were analysed using ANCOVA by including the weekend and the mean of Friday/Saturday/Sunday night as a covariate. The method was a closed test procedure (Williams' test). Each of the tests were to be conducted at the 5% level. The analysis of the secondary endpoints was similarly conducted using the Student's t-tests on parameter estimates taken from the analysis of variance model presented above.
as §6

[4] = tested on: volunteers; settings: single doses 10 mg or 20 mg sustained release at bedtime; cited from earlier work

Q: Which “percentage of people feeling alert, very alert or extremely alert on waking versus placebo” value ([1]; 2.5 mg) does the source give for `Cc1ccc(/C(=C\CN2CCCC2)c2ccccn2)cc1` [TRP.HCl.H2O] here?
A: greater percentage

Q: What about the “percentage of people feeling sleepy, some effort, or very sleepy, great effort to keep awake, on waking versus placebo” value ([1]; 2.5 mg) of the same compound?
A: lower percentage

Q: And the “residual hangover effects/morning grogginess” value ([1]; 2.5 mg)?
A: no evidence of residual hangover effects/morning grogginess

Q: What about the “I feel (i) sleepy, some effort or (ii) very sleepy, a great effort to keep awake (Karolinska scales 8 and 9)” value (from here on “I feel (i) sleepy”) ([1]; 2.5 mg, Monday) of the same compound?
A: 11.5%

Q: What about the “I feel extremely alert, very alert or alert (Karolinska scales 1, 2 or 3)” value (“I feel extremely alert” below) ([1]; 2.5 mg, Monday) of the same compound?
A: 21.3%

Q: What about the “I feel (i) sleepy” value ([1]; 2.5 mg, Tuesday) of the same compound?
A: 13.1%

Q: What about the “I feel extremely alert” value ([1]; 2.5 mg, Tuesday) of the same compound?
A: 21.3%

Q: What about the “I feel (i) sleepy” value ([1]; 2.5 mg, Wednesday) of the same compound?
A: 6.5%

Q: And the “I feel extremely alert” value ([1]; 2.5 mg, Wednesday)?
A: 21.0%

Q: What about the “I feel (i) sleepy” value ([1]; 5 mg, Monday) of the same compound?
A: 12.5%

Q: What about the “I feel extremely alert” value ([1]; 5 mg, Monday) of the same compound?
A: 6.3%

Q: And the “I feel (i) sleepy” value ([1]; 5 mg, Tuesday)?
A: 17.5%

Q: And the “I feel extremely alert” value ([1]; 5 mg, Tuesday)?
A: 9.5%

Q: What about the “I feel (i) sleepy” value ([1]; 5 mg, Wednesday) of the same compound?
A: 12.7%

Q: What about the “I feel extremely alert” value ([1]; 5 mg, Wednesday) of the same compound?
A: 17.5%

Q: And the daytime sleepiness ([1]; either dose (2.5 mg or 5 mg))?
A: lack of daytime sleepiness

Q: And the “last night I slept (1- extremely well, 5- extremely badly), Mean” value (“last night I slept … Mean” below) ([2]; 2.5 mg, Mean of 3)?
A: 2.73

Q: What about the “last night I slept … Mean” value ([2]; 2.5 mg, Mon) of the same compound?
A: 2.67

Q: What about the “Last Night I Slept Extremely Well or Very Well Responses” value ([2]; 2.5 mg, Monday) of the same compound?
A: 41.4%

Q: And the “last night I slept … Mean” value ([2]; 2.5 mg, Tues)?
A: 2.71

Q: And the “Last Night I Slept Extremely Well or Very Well Responses” value ([2]; 2.5 mg, Tuesday)?
A: 41.8%

Q: What about the “last night I slept … Mean” value ([2]; 2.5 mg, Wed) of the same compound?
A: 2.81

Q: And the “Last Night I Slept Extremely Well or Very Well Responses” value ([2]; 2.5 mg, Wednesday)?
A: 37.9%

Q: And the “last night I slept … Mean” value ([2]; 5 mg, Mean of 3)?
A: 2.69

Q: And the “last night I slept … Mean” value ([2]; 5 mg, Mon)?
A: 2.49

Q: And the “Last Night I Slept Extremely Well or Very Well Responses” value ([2]; 5 mg, Monday)?
A: 50.9%

Q: And the “last night I slept … Mean” value ([2]; 5 mg, Tues)?
A: 2.93

Q: What about the “Last Night I Slept Extremely Well or Very Well Responses” value ([2]; 5 mg, Tuesday) of the same compound?
A: 28.8%

Q: What about the “last night I slept … Mean” value ([2]; 5 mg, Wed) of the same compound?
A: 2.64

Q: And the “Last Night I Slept Extremely Well or Very Well Responses” value ([2]; 5 mg, Wednesday)?
A: 39.3%

Q: And the “15 mins after awaking (1- very refreshed 5- very tired), Mean” value (shortened to “15 mins after awaking”) ([3]; 2.5 mg, Mean of 3)?
A: 3.24

Q: What about the “15 mins after awaking” value ([3]; 2.5 mg, Mon) of the same compound?
A: 3.33

Q: What about the “Awoke Very Refreshed or Refreshed Responses” value ([3]; 2.5 mg, Monday) of the same compound?
A: 23%

Q: And the “15 mins after awaking” value ([3]; 2.5 mg, Tues)?
A: 3.23

Q: And the “Awoke Very Refreshed or Refreshed Responses” value ([3]; 2.5 mg, Tuesday)?
A: 23%

Q: What about the “15 mins after awaking” value ([3]; 2.5 mg, Wed) of the same compound?
A: 3.18

Q: And the “Awoke Very Refreshed or Refreshed Responses” value ([3]; 2.5 mg, Wednesday)?
A: 25.8%

Q: What about the “feeling of refreshedness 15 minutes after waking versus placebo” value ([3]; 2.5 mg, p<0.05) of the same compound?
A: more refreshed than those on placebo

Q: And the “15 mins after awaking” value ([3]; 5 mg, Mean of 3)?
A: 3.59

Q: What about the “15 mins after awaking” value ([3]; 5 mg, Mon) of the same compound?
A: 3.72

Q: What about the “Awoke Very Refreshed or Refreshed Responses” value ([3]; 5 mg, Monday) of the same compound?
A: 11.5%

Q: What about the “15 mins after awaking” value ([3]; 5 mg, Tues) of the same compound?
A: 3.56

Q: What about the “Awoke Very Refreshed or Refreshed Responses” value ([3]; 5 mg, Tuesday) of the same compound?
A: 8.2%

Q: What about the “15 mins after awaking” value ([3]; 5 mg, Wed) of the same compound?
A: 3.54

Q: What about the “Awoke Very Refreshed or Refreshed Responses” value ([3]; 5 mg, Wednesday) of the same compound?
A: 14.8%

Q: And the “sleep onset latency (time required to fall asleep) compared with placebo” value [4]?
A: did not significantly alter

Q: And the “total sleep time compared with placebo” value [4]?
A: no effect

Q: And the “wakefulness during sleep compared with placebo” value [4]?
A: no effect
